# Test results: US20110288036A1, “Methods for Treating or Preventing Vascular Graft Failure” (priority 2010, published 2011)
# Experiments:
# CaMKIV = CaMKIV (Homo sapiens, UniProt Q16566); details: AIP 1 μM; cited from earlier work
# [1] = test system: Ca2+/calmodulin-dependent protein kinase II (CaMKII); details: cited from earlier work
# PKA = details: AIP 1 μM; cited from earlier work
# PKC = details: AIP 1 μM; cited from earlier work
# MK2 = details: known small molecule inhibitor of MK2; ATP competitive; cited from earlier work
# [2] = test system: immortalized human pleural mesothelial cells (ATCC CRL-9444); assay: IL-6 ELISA in TNF-α-stimulated mesothelial cells; format: cell-based
# Experimental: Expression of inflammatory cytokines was induced by applying 1 or 10 ng/ml of TNF-α to cultured mesothelial cells. Briefly, immortalized human pleural mesothelial cells (ATCC CRL-9444) were grown in Medium199 with Earle's BSS, 0.75 mM L-glutamine (Mediatech Inc., Manassas, Va.), 1.25 g/l sodium bicarbonate (Sigma), 3.3 nM epidermal growth factor (EGF) (MBL International, Woburn, Mass.), 40 nM hydrocortisone (Sigma), 870 nM insulin (MBL International), 20 mM HEPES (Sigma), trace elements mixture B (Mediatech Inc., Waltham, Mass.), 10% fetal bovine serum (FBS) (Hyclone), and 1% penicillin/streptomycin (Mediatech Inc., Waltham, Mass.). […] Human mesothelial cells were treated with two different concentrations (1 and 10 ng/mL) of TNF-α for 2, 6, 12, and 24 hours (data not shown). […] Without TNF-α stimulation, mesothelial cells made negligible amounts of IL-6. […] In subsequent experiments designed to determine whether the MMI-0100 peptide ([…]; SEQ ID NO: 1) could reduce TNF-α induced IL-6 expression, both 1 and 10 ng/mL of TNF-α were selected as stimuli. 10 ng/mL of TNF-α is regarded as more physiologically relevant for mesothelial cells.
# Prior to cytokine and/or inhibitor treatment, cells were allowed to acclimate in serum-free media consisting of only Medium199 with Earle's BSS, 0.75 mM L-glutamine, 1.25 g/l sodium bicarbonate, 20 mM HEPES, trace elements mixture B (Mediatech Inc., Waltham, Mass.), and 1% penicillin/streptomycin (Mediatech Inc., Waltham, Mass.) for 24 hours. […] Average concentration of IL-6 (pg/ml per 10^5 cells) at each time was determined by cytokine-specific ELISA.
# [3] = test system: human saphenous vein (HSV); assay: Muscle bath: sodium nitroprusside-induced relaxation of human saphenous vein; format: cell-based; details: 50 or 100 μM pretreatment; data not shown
# Experimental: De-identified, discarded segments of human saphenous vein (HSV) were collected from consented patients undergoing coronary artery or peripheral vascular bypass surgeries. HSV segments were stored in a saline solution until the end of the surgical procedure, at which time they were placed in cold transplant harvest buffer (100 mM potassium lactobionate, 25 mM KH2PO4, 5 mM MgSO4, 30 mM Raffinose, 5 mM Adenosine, 3 mM Glutathione, 1 mM Allopurinol, 50 g/L Hydroxyethyl starch, pH 7.4). The vessels were used within 24 hours of harvest. Using sterile technique, HSV segments were transferred to a 60-mm Petri dish under a sterile hood. The edges (0.5 mm) of each segment were removed with a blade and excess adventitial tissue and fat removed with minimal manipulation. HSV segments were cut into consecutive rings of approximately 1.0 mm in width to be utilized for organ culture or muscle bath experiments. Two rings from each segment were immediately fixed in 10% formalin at 37° C. for 30 min to obtain pre-culture intimal thickening measurements.
# In preparation for testing vein segment functional viability, HSV rings were weighed and their lengths recorded. To focus on smooth muscle responses, the endothelium was mechanically denuded by rolling the luminal surface of each ring at the tip of a fine vascular forceps before suspension in a muscle bath containing a bicarbonate buffer (120 mM NaCl, 4.7 mM KCl, 1.0 mM MgSO4, 1.0 mM NaH2PO4, 10 mM glucose, 1.5 mM CaCl2, and 25 mM […], pH 7.4) equilibrated with 95% O2 and 5% CO2 at 37° C. The rings were stretched and the length progressively adjusted until maximal tension was obtained. […] Rings were maintained at a resting tension of 1 g, which produces maximal responses to contractile agonists as previously determined, and equilibrated for 2 hours in buffer. […]
# HSV rings were first contracted with 110 mM KCl (with equimolar replacement of NaCl in bicarbonate buffer) and the generated force was measured. […] Rings were relaxed with a cumulative log dose of sodium nitroprusside (SNP), a nitric oxide donor, and the force generated was recorded. […] Rings were then incubated with either buffer alone or buffer plus 100 μM of MMI-0100 ([…] (SEQ ID NO: 1)) for 2 hours, followed by treatment with the same doses of PE and SNP, and the forces generated again recorded. Measured force was normalized for ring weight and length and percent relaxation was calculated; force generated with 10^−6 M of PE was set as 0% relaxation.
# The enhancing effect of MMI-0100 ([…]; SEQ ID NO: 1) on smooth muscle relaxation was examined by pre-treating harvested human saphenous vein (HSV) with MMI-0100 ([…]; SEQ ID NO: 1) before SNP treatment. […] Percentage of relaxation at 0, 0.01, 0.1, and 1.0 μM of SNP was measured. […]
# Chain of CaMKIV (Q16566 whole entry, species assumed): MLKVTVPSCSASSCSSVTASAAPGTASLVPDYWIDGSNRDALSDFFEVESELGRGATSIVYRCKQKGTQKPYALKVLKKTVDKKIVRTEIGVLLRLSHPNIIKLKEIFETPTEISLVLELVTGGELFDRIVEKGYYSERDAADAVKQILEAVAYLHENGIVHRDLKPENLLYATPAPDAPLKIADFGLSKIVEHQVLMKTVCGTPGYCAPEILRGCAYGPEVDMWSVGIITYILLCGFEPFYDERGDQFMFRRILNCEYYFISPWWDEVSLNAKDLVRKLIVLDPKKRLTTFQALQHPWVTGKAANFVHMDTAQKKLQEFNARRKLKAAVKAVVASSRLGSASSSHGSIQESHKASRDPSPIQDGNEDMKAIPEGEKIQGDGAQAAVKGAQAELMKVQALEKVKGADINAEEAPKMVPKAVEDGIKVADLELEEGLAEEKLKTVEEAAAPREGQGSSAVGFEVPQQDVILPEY
compound,measurement,setting,value
autocamtide-2 related inhibitory peptide [AIP],CaMKIV activity,CaMKIV,not affected
same,CaMKII activity,[1]; AIP 1 μM,inhibited completely
same,IC50,[1],100 nM
same,PKA activity,PKA,not affected
same,PKC activity,PKC,not affected
"CC(=O)c1c(O)c(C)c(O)c(Cc2c(O)c3c(c(C(=O)/C=C/c4ccccc4)c2O)OC(C)(C)C=C3)c1O [Rottlerin, reference compound]",IC50,MK2,5000 nM
same,IL-6 expression,"[2]; TNF-α 1 ng/mL, 6 hrs",significantly increased IL-6 expression above that induced by TNF-α alone
same,IL-6 expression,"[2]; TNF-α 1 ng/mL, MMI-0100 1000 or 3000 μM, 6, 12, 24 hours",ineffective in reducing IL-6 expression
same,IL-6 expression,"[2]; TNF-α 10 ng/mL, 6, 12, 24 hours",reduced IL-6 expression only at a higher dose (1 μM) and only at twenty-four hours after treatment
"YARAAARQARA (mammal) [PTD peptide, control peptide (transduction domain, PTD peptide), reference compound]",relaxation response vs untreated control,[3],no significant difference in relaxation response
